Measured values taken from US12649751B2 (Arcus Biosciences, Inc., priority 2022, dated 2026).
Read-outs that look alike come from different tables or passages of the source.

How the values were obtained:
HPK1 = HPK1 (Homo sapiens, UniProt Q92918); assay: HPK1 Biochemical Assay (ADP-Glo luminescence; low ATP 10 μM or high ATP 200 μM)
[1] = test system: p-SLP-76 (Ser376) in Jurkat cells; assay: pSLP76 Cellular Assay (AlphaLISA SureFire Ultra p-SLP-76 (Ser376), anti-CD3 activated Jurkat cells); type: cell-based; details: Homo sapiens, read-out: Cellular Potency
Outline: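 Jurkat cells, serum-starved overnight in Opti-MEM then in HBSS, preincubated 1 h at 37 °C with 22-point 2-fold compound dilutions, then stimulated with anti-CD3 (0.025 mg/ml added solution) for 45 min. Lysate p-SLP-76 (Ser376) measured by AlphaLISA at 570 nm; IC50 from 4-parameter logistic fit.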

[2] = HPK1 ADP-Glo assay, high ATP (200 μM ATP, 5 nM HPK1), read-out: Biochemical Potency (high ATP)
[3] = pSLP76 (Ser376) AlphaLISA, anti-CD3 activated Jurkat cells
[4] = 2 nM HPK1, 10 μM ATP, read-out: Biochemical Potency (low ATP)
[5] = Jurkat cells, anti-CD3 stimulation, pSLP76
[6] = HPK1 ADP-Glo assay, low ATP (10 μM ATP, 2 nM HPK1), read-out: Biochemical Potency (low ATP)

Sequence of HPK1 (Q92918 whole entry, species assumed): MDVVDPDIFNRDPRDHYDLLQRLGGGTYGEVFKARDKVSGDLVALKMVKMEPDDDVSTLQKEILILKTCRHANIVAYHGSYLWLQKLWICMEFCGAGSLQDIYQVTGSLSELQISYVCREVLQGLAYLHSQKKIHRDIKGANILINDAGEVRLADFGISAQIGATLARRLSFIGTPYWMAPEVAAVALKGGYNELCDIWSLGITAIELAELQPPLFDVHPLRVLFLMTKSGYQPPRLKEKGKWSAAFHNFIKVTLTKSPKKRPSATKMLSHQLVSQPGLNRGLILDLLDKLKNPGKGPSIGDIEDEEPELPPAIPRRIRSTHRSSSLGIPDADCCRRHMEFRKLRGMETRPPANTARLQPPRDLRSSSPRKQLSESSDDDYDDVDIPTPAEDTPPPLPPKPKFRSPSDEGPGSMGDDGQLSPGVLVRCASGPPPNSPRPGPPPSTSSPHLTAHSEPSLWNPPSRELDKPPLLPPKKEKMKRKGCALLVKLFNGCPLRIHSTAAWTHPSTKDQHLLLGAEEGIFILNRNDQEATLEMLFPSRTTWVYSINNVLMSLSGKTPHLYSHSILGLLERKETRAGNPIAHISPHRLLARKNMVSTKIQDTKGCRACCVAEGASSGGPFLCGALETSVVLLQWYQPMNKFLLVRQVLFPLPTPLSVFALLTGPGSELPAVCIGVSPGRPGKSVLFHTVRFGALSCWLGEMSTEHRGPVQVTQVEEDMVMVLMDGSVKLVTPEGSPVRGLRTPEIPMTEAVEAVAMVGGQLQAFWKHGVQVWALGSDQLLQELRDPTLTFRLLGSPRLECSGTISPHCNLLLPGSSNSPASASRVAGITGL

Structure (SMILES)	IC50 (HPK1; [2]) [nM]	IC50 [1, 3] [nM]	other results
CCN1C[C@@H]2C[C@H]1CN2c1nc(C)cc(Nc2cc3nc(-c4cccc(C(=O)N5CCCC5(C)C)c4)sc3cn2)n1 [Example 520]	< 100	< 100	–
Cc1cc(Nc2cc3nc(-c4cccc(C(=O)N(C)C)c4)sc3cn2)nc(N2C[C@@H]3C[C@H]2CN3Cc2ccccn2)n1 [Example 493]	< 100	100 to 1000	–
Cc1cc(-c2nc3cc(Nc4cccc(N5CCNCC5)n4)ncc3s2)ccn1 [Example 85, N-[2-(2-Methylpyridin-4-yl)-[1,3]thiazolo[5,4-c]pyridin-6-yl]-6-(piperazin-1-yl)pyridin-2-amine]	–	–	IC50 (HPK1; [4]): < 100 nM; IC50 [1, 5]: 1000 to 5000 nM
CN1C[C@@H]2C[C@H]1CN2c1nccc(Nc2cc3nc(-c4ccncc4)sc3cn2)n1 [Example 159, 2-[(1S,4S)-5-Methyl-2,5-diazabicyclo[2.2.1]heptan-2-yl]-N-[2-(pyridin-4-yl)-[1,3]thiazolo[5,4-c]pyridin-6-yl]pyrimidin-4-amine]	–	–	IC50 (HPK1; [4]): < 100 nM; IC50 [1, 5]: 100 to 1000 nM
Cc1cc(C(=O)N(C)C)cc(-c2nc3cc(Nc4cc(C)nc(N5C[C@@H]6C[C@H]5CN6CCO)n4)ncc3s2)c1 [Example 562]	< 100	< 100	–
Cc1cccnc1-c1nc2cc(Nc3cc(F)cc(N4C[C@@H]5C[C@H]4CN5)n3)ncc2s1 [Example 334]	–	< 100	IC50 (HPK1; [6]): < 100 nM
CCN1C[C@@H]2C[C@H]1CN2c1nc(C)cc(Nc2cc3nc(O[C@@H](C)c4ccccc4)sc3cn2)n1 [Example 483]	< 100	100 to 1000	–
CCN1C[C@@H]2C[C@H]1CN2c1nc(C)cc(Nc2cc3nc(-c4cccc(C(=O)N(C)C5CCN(C(C)=O)CC5)c4)sc3cn2)n1 [Example 568]	100 to 1000	1000 to 5000	–
c1cnn(-c2nc3cc(Nc4cnc(C5CCOCC5)c(N5C[C@@H]6C[C@H]5CN6)n4)ncc3s2)c1 [Example 508]	< 100	< 100	–
CCN(CC)C(=O)c1cccc(-c2nc3cc(Nc4cc(C)nc(N5C[C@@H]6C[C@H]5CN6CC)n4)ncc3s2)c1 [Example 342]	< 100	100 to 1000	–
CNC(=O)c1cccc(-c2nc3cc(Nc4cccc(N5C[C@@H]6C[C@H]5CN6C)n4)ncc3s2)c1 [Example 135, N-Methyl-3-[6-({6-[(1S,4S)-5-methyl-2,5-diazabicyclo[2.2.1]heptan-2-yl]pyridin-2-yl}amino)-[1,3]thiazolo[5,4-c]pyridin-2-yl]benzamide]	–	–	IC50 (HPK1; [4]): < 100 nM; IC50 [1, 5]: 1000 to 5000 nM
Cc1cc(Nc2cc3nc(-c4cc(C(=O)N(C)C)cc(C(C)C)c4)sc3cn2)nc(N2C[C@@H]3C[C@H]2CN3CCO)n1 [Example 551]	< 100	< 100	–
Cc1ccc(-c2nc3cc(Nc4cccc(N5C[C@@H]6C[C@H]5CN6C)n4)ncc3s2)c(C)n1 [Example 129, N-[2-(2,6-Dimethylpyridin-3-yl)-[1,3]thiazolo[5,4-c]pyridin-6-yl]-6-[(1S,4S)-5-methyl-2,5-diazabicyclo[2.2.1]heptan-2-yl]pyridin-2-amine]	–	–	IC50 (HPK1; [4]): < 100 nM; IC50 [1, 5]: > 5000 nM
Cc1cc(Nc2cc3nc(-c4cnn(CC(F)F)c4)sc3cn2)nc(N2C[C@@H]3C[C@H]2CN3C)n1 [Example 375]	< 100	100 to 1000	–
Cc1cccnc1-c1nc2cc(Nc3cncc(N4C[C@@H]5C[C@H]4CN5C)n3)ncc2s1 [Example 145, 6-[(1S,4S)-5-Methyl-2,5-diazabicyclo[2.2.1]heptan-2-yl]-N-[2-(3-methylpyridin-2-yl)-[1,3]thiazolo[5,4-c]pyridin-6-yl]pyrazin-2-amine]	–	–	IC50 (HPK1; [4]): < 100 nM; IC50 [1, 5]: 100 to 1000 nM
Cc1cccnc1-c1nc2cc(Nc3ccc4c(n3)CN(C)CC4)ncc2s1 [Example 327]	–	100 to 1000	IC50 (HPK1; [6]): < 100 nM
Cc1cc(-c2nc3cc(Nc4cccc(N5C[C@@H]6C[C@H]5CN6C)n4)ncc3s2)ccn1 [Example 96, 6-[(1S,4S)-5-Methyl-2,5-diazabicyclo[2.2.1]heptan-2-yl]-N-[2-(2-methylpyridin-4-yl)-[1,3]thiazolo[5,4-c]pyridin-6-yl]pyridin-2-amine]	–	–	IC50 (HPK1; [4]): < 100 nM; IC50 (HPK1; 5 nM HPK1, 200 μM ATP, read-out: Biochemical Potency (high ATP)): < 100 nM; IC50 [1, 5]: 100 to 1000 nM
Cc1cc(Nc2cc3nc(-c4ccnc(N5CCOC[C@H]5C)c4)sc3cn2)nc(N2C[C@@H]3C[C@H]2CN3C)n1 [Example 455]	< 100	100 to 1000	–
Cc1cc(Nc2cc3nc(-c4ccnc(N5C[C@H]6COC[C@H]6C5)c4)sc3cn2)nc(N2C[C@@H]3C[C@H]2CN3CCO)n1 [Example 452]	< 100	100 to 1000	–

Structure (SMILES)	IC50 (HPK1; [2]) [nM]	IC50 [1, 3] [nM]	other results
Cc1cc(Nc2cc3nc(-c4ncc(C)o4)sc3cn2)nc(N2C[C@@H]3C[C@H]2CN3CCO)n1 [Example 359]	< 100	< 100	–
Cc1cc(Nc2cc3nc(-c4c(C)ccc(C(C)(C)O)c4C)sc3cn2)nc(N2C[C@@H]3C[C@H]2CN3C)n1 [Example 467]	< 100	< 100	–
CC(=O)N1CCC(n2cc(-c3nc4cc(Nc5cc(C)nc(N6C[C@@H]7C[C@H]6CN7C)n5)ncc4s3)cn2)CC1 [Example 571]	100 to 1000	1000 to 5000	–
Cc1cccnc1-c1nc2cc(Nc3cc(C4CC4)nc(N4C[C@@H]5C[C@H]4CN5C)n3)ncc2s1 [Example 436]	< 100	100 to 1000	–
Cc1cc(Nc2cc3nc(-c4cccc(C(=O)N(C)[C@H]5CCOC5)c4)sc3cn2)nc(N2C[C@@H]3C[C@H]2CN3CCO)n1 [Example 555]	< 100	< 100	–
Cc1cccnc1-c1nc2cc(Nc3cnc(C)c(N4C[C@@H]5C[C@H]4CN5)n3)ncc2s1 [Example 148, 6-[(1S,4S)-2,5-Diazabicyclo[2.2.1]heptan-2-yl]-5-methyl-N-[2-(3-methylpyridin-2-yl)-[1,3]thiazolo[5,4-c]pyridin-6-yl]pyrazin-2-amine]	–	–	IC50 (HPK1; [4]): < 100 nM; IC50 [1, 5]: < 100 nM
CCc1cc(C(=O)N(C)C)cc(-c2nc3cc(Nc4cc(C)nc(N5C[C@@H]6C[C@H]5CN6CCO)n4)ncc3s2)c1 [Example 546]	< 100	< 100	–
Cc1cc(Nc2cc3nc(-c4cnn(CS(C)(=O)=O)c4)sc3cn2)nc(N2C[C@@H]3C[C@H]2CN3C)n1 [Example 378]	< 100	100 to 1000	–
CN(C)C(=O)c1cccc(-c2nc3cc(Nc4cccc(N5C[C@@H]6C[C@H]5CN6C)n4)ncc3s2)c1 [Example 137, N,N-Dimethyl-3-[6-({6-[(1S,4S)-5-methyl-2,5-diazabicyclo[2.2.1]heptan-2-yl]pyridin-2-yl}amino)-[1,3]thiazolo[5,4-c]pyridin-2-yl]benzamide]	–	–	IC50 (HPK1; [4]): < 100 nM; IC50 [1, 5]: 100 to 1000 nM
Cc1cc(Nc2cc3nc(-c4ncc(C)o4)sc3cn2)nc(N2C[C@@H]3C[C@H]2CN3C)n1 [Example 373]	< 100	100 to 1000	–
Cc1cc(Nc2cc3nc(-c4ccnc(O[C@H]5CCOC5)c4)sc3cn2)nc(N2C[C@@H]3C[C@H]2CN3C)n1 [Example 482]	< 100	1000 to 5000	–
Cc1cc(Nc2cc3nc(-c4cccc5c4CCCN5S(C)(=O)=O)sc3cn2)nc(N2C[C@@H]3C[C@H]2CN3C)n1 [Example 312, N-[2-(1-methanesulfonyl-1,2,3,4-tetrahydroquinolin-5-yl)-[1,3]thiazolo[5,4-c]pyridin-6-yl]-6-methyl-2-[(1S,4S)-5-methyl-2,5-diazabicyclo[2.2.1]heptan-2-yl]pyrimidin-4-amine]	100 to 1000	1000 to 5000	–
CS(=O)(=O)c1cccc(-c2nc3cc(Nc4cc(C5CCOCC5)nc(N5C[C@@H]6C[C@H]5CN6)n4)ncc3s2)c1 [Example 443]	< 100	< 100	IC50 (HPK1; [6]): < 100 nM
CCN1C[C@@H]2C[C@H]1CN2c1nc(C)cc(Nc2cc3nc(-c4cccc(C(=O)N5CCC6(CCOC6)C5)c4)sc3cn2)n1 (stereo partly shown) [Example 530]	< 100	100 to 1000	–
Cc1cccnc1-c1nc2cc(Nc3cccc(N4CCN5CCC[C@@H]5C4)n3)ncc2s1 [Example 114, 6-[(8aR)—Octahydropyrrolo[1,2-a]pyrazin-2-yl]-N-[2-(3-methylpyridin-2-yl)-[1,3]thiazolo[5,4-c]pyridin-6-yl]pyridin-2-amine]	–	–	IC50 (HPK1; [4]): < 100 nM; IC50 [1, 5]: > 5000 nM
CCN1C[C@@H]2C[C@H]1CN2c1nc(C)cc(Nc2cc3nc(-c4cccc(CN5CCOC5=O)c4)sc3cn2)n1 [Example 310, (2-{(1S,4S)-5-ethyl-2,5-diazabicyclo[2.2.1]hept-2-yl}-6-methyl-4-pyrimidinyl)(2-{m-[(2-oxo-1,3-oxazolidin-3-yl)methyl]phenyl}-3-thia-1,5-diaza-6-indenyl)amine]	< 100	100 to 1000	–
c1cncc(-c2nc3cc(Nc4ccc(C5CCOCC5)c(CN5CCCC5)n4)ncc3s2)c1 [Example 225, 5-(Oxan-4-yl)-N-[2-(pyridin-3-yl)-[1,3]thiazolo[5,4-c]pyridin-6-yl]-6-[(pyrrolidin-1-yl)methyl]pyridin-2-amine]	–	–	IC50 (HPK1; [4]): < 100 nM; IC50 [1, 5]: 100 to 1000 nM
c1cc(-c2nnco2)cc(-c2nc3cc(Nc4cccc(N5C[C@@H]6C[C@H]5CN6)n4)ncc3s2)c1 [Example 142, 6-[(1S,4S)-2,5-Diazabicyclo[2.2.1]heptan-2-yl]-N-{2-[3-(1,3,4-oxadiazol-2-yl)phenyl]-[1,3]thiazolo[5,4-c]pyridin-6-yl}pyridin-2-amine]	–	–	IC50 (HPK1; [4]): < 100 nM; IC50 [1, 5]: 1000 to 5000 nM
